Experiment [1] concerns the target T1, human M2 receptor (Homo sapiens, UniProt P08172).
T1 construct: expressed in transfected cells; host or cells: CHO-DUKX (CHO-DUKX-M2-GIRK)
T1 sequence (P08172 1-466): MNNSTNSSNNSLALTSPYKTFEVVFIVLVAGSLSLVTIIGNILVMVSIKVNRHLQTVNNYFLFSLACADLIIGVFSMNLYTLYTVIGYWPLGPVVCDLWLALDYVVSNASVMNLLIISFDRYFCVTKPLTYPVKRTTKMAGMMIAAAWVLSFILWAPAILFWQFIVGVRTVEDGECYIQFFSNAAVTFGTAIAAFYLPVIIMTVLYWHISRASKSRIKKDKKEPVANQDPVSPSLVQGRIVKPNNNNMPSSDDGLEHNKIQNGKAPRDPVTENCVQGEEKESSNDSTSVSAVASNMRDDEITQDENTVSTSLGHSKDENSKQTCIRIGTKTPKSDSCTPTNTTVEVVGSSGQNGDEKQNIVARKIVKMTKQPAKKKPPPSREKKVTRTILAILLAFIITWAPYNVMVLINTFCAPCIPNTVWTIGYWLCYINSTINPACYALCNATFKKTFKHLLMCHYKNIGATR
The experiment can be described thus: Functional M2-GIRK1/4 activation test: allosteric potency (EC50) and efficiency at EC20 acetylcholine. It is filed as cell-based. The conditions noted are these: CHO-DUKX-M2-GIRK cells; for EC50: voltage-sensitive dye, acetylcholine at EC20, in some cases mean of two or more determinations; for Emax / Efficiency: boosting of the acetylcholine effect at EC20 acetylcholine concentration. In short, it runs like this:
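Positive allosteric modulation measured as boosting of an EC20 acetylcholine response: hyperpolarization via GIRK1/4 in CHO-DUKX-M2-GIRK cells, monitored by membrane-potential dye fluorescence over 60 s after agonist, compound preadded. Hill-function fit gives EC50 and efficiency.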

For experiment [2], the target named is T1, human M2 receptor. In words: Functional M2-GIRK1/4 activation test: positive cooperativity (α factor), shift of acetylcholine dose-response curve. It counts as cell-based. The conditions noted are these: Allosteric EC50 shift of acetylcholine 8-point dose-response curve; CHO-DUKX-M2-GIRK cells; α>1 = positive cooperativity. The source says: The binding of orthosteric agonists (endogenous ligand: acetylcholine) to the M2 receptor leads to receptor activation or a change in conformation of the receptor in the manner of a shift in equilibrium in favour of the active receptor conformation.
The agonist-induced change in conformation of the M2 receptor results in a Gαi protein activation. […] Under physiological conditions, the result is then a selective efflux of potassium from the cell along the electrochemical gradient. […] The extent of hyperpolarization can therefore be regarded as a measure of the activation of the M2 receptor.
The test cell used is a recombinant CHO-DUKX cell line which has been stably transfected with cDNA coding for the human M2 receptor and with cDNA coding for both GIRK1/4 subunits (CHO-DUKX-M2-GIRK). The transmembrane potential, or the relative changes in the transmembrane potential as a function of substance addition or M2 activation, is determined by means of a voltage-sensitive dye (FLIPR Membrane Potential Assay Kit Blue, Molecular Devices #R8034) and the measurement of cell fluorescence using a proprietary fluorescence imaging instrument.
In accordance with the desired test concentrations, the substances were pre-diluted in loading buffer (see above).
The sowing medium consisted of MEM alpha medium (supplemented with 5% PCS, 2% Glutamax, no genticin).
For the particular measurement, the medium was removed and the cells were laden with the volt-age-sensitive dye for at least 6 min at room temperature (30 μl of loading buffer per 384-well). This was followed, in a first measurement, by the determination of the resting transmembrane potential for a period of 5 sec in 1 sec increments. Thereafter, 10 μl in each case of the test substances diluted in loading buffer are added, followed by a second measurement to determine the transmembrane potential for a period of 50 sec in 1 sec increments.
Finally, the cells are admixed with 10 μl of agonist solution (acetylcholine dissolved in loading buffer). In contrast to the EC50 determination of the test substances (see B-1.1), however, this is not done using one acetylcholine concentration; instead, every concentration of the test substance is combined with an acetylcholine 8-point dose-response curve. […] The M2-mediated GIRK1/4 activation or hyperpolarization is then monitored in a third measurement over a period of 60 sec in 1 sec increments. The shift in the acetylcholine dose-response curve in the presence of increasing concentrations of the test substance is analysed and quantified by means of GraphPad PRISM (Allosteric EC50 shift). […] Positive cooperativity is the hallmark of a positive allosteric modulator. […] The greater the magnitude of the α value, the greater the extent of cooperativity between orthosteric and allosteric.

In the case of `CCN(CC(C)O)c1nc2c(cc1F)c(=O)c(C(=O)N[C@@H](C1CC1)C(F)(F)F)cn2-c1c(F)cc(F)cc1F` (mixture of isomers) [Example 65, N-[(1S)-1-Cyclopropyl-2,2,2-trifluoroethyl]-7-[ethyl(2-hydroxypropyl)amino]-6-fluoro-4-oxo-1-(2,4,6-trifluorophenyl)-1,4-dihydro-1,8-naphthyridine-3-carboxamide], in experiment [1], the response was half-maximal at 30 nM (EC50) and the Emax – broadly, the greatest response seen or fitted, relative to the assay's reference – was determined as 89%. Also, the “Cooperativity (alpha factor)” value in experiment [2] was determined as 14.

On to `CC(NC(=O)c1cn(-c2c(F)cc(F)cc2F)c2nc(N3CC[C@H](O)C3)c(F)cc2c1=O)C(F)(F)C(F)(F)F` (mixture of isomers) [Example 112, 6-Fluoro-7-[(3S)-3-hydroxypyrrolidin-1-yl]-4-oxo-N-[3,3,4,4,4-pentafluorobutan-2-yl]-1-(2,4,6-trifluorophenyl)-1,4-dihydro-1,8-naphthyridine-3-carboxamide], for which, in experiment [1], a half-maximal effect (EC50) was put at 4.25 nM and the Emax is 100%. Moreover, in experiment [2], the “Cooperativity (alpha factor)” value stood at 33.

`CC(NC(=O)c1cn(-c2c(F)cc(F)cc2F)c2nc(N3CC(CO)(CO)C3)c(F)cc2c1=O)C(F)(F)C(F)(F)F` (racemic) [Example 169, 7-[3,3-Bis(hydroxymethyl)azetidin-1-yl]-6-fluoro-4-oxo-N-[3,3,4,4,4-pentafluorobutan-2-yl]-1-(2,4,6-trifluorophenyl)-1,4-dihydro-1,8-naphthyridine-3-carboxamide]: in experiment [1], a half-maximal effect (EC50) was put at 3.8 nM and the Efficiency is 99%. In experiment [2], the “Cooperativity (alpha factor)” value was 34.

For the molecule `CC(NC(=O)c1cn(-c2c(F)cc(F)cc2F)c2nc(N3CC(CO)(CO)C3)c(F)cc2c1=O)C(F)(F)C(F)(F)F` (racemic) [Example 170, 7-[3,3-Bis(hydroxymethyl)azetidin-1-yl]-6-fluoro-4-oxo-N-[3,3,4,4,4-pentafluorobutan-2-yl]-1-(2,4,6-trifluorophenyl)-1,4-dihydro-1,8-naphthyridine-3-carboxamide], in experiment [1], a half-maximal effect (EC50) was put at 8.1 nM and the Efficiency was 100%. Further, the “Cooperativity (alpha factor)” value in experiment [2] is given as 38.

With `CCC(NC(=O)c1cn(-c2c(F)cc(F)cc2F)c2nc(N3CC(CO)(CO)C3)c(F)cc2c1=O)C(F)(F)C(F)(F)F` (racemic) [Example 172, 7-[3,3-Bis(hydroxymethyl)azetidin-1-yl]-6-fluoro-4-oxo-N-[1,1,1,2,2-pentafluoropentan-3-yl]-1-(2,4,6-trifluorophenyl)-1,4-dihydro-1,8-naphthyridine-3-carboxamide], in experiment [1], it took 3.3 nM to reach a half-maximal effect (EC50) and the Efficiency amounted to 94%. Besides, the “Cooperativity (alpha factor)” value in experiment [2] came out at 35.

For `CCC(NC(=O)c1cn(-c2c(F)cc(F)cc2F)c2nc(N3CC(CO)(CO)C3)c(F)cc2c1=O)C(F)(F)C(F)(F)F` (racemic) [Example 173, 7-[3,3-Bis(hydroxymethyl)azetidin-1-yl]-6-fluoro-4-oxo-N-[1,1,1,2,2-pentafluoropentan-3-yl]-1-(2,4,6-trifluorophenyl)-1,4-dihydro-1,8-naphthyridine-3-carboxamide], in experiment [1], a half-maximal response (EC50) required 2.5 nM and the Efficiency is given as 99%. Besides, in experiment [2], the “Cooperativity (alpha factor)” value came to 39.

As for `CC(NC(=O)c1cn(-c2c(F)cc(F)cc2F)c2nc(N3C[C@@H](O)[C@H](O)C3)c(F)cc2c1=O)C(F)(F)C(F)(F)F` (single isomer, unassigned) [Example 9], in experiment [1], the maximal effect (Emax) was determined as 91%. The “Cooperativity (alpha factor)” value in experiment [2] was found to be 39.

Turning to `CC(NC(=O)c1cn(-c2c(F)cc(F)cc2F)c2nc(N3C[C@@H](O)[C@H](O)C3)c(F)cc2c1=O)C(F)(F)C(F)(F)F` (single isomer, unassigned) [Example 10], in experiment [2], the “Cooperativity (alpha factor)” value was determined as 70.

On to `CCC(COC(F)(F)F)NC(=O)c1cn(-c2c(F)cc(F)cc2F)c2nc(N3C[C@@H](O)[C@H](O)C3)c(F)cc2c1=O` (single isomer, unassigned) [Example 31], for which, in experiment [1], the EC50 (usually the concentration at which the effect is half-maximal) amounted to 4.15 nM and the Emax was determined as 100%. For the same molecule, the “Cooperativity (alpha factor)” value in experiment [2] is listed as 37.

For `CCC(COC(F)(F)F)NC(=O)c1cn(-c2c(F)cc(F)cc2F)c2nc(N3C[C@@H](O)[C@H](O)C3)c(F)cc2c1=O` (single isomer, unassigned) [Example 32], in experiment [1], the EC50 is 4.3 nM and the Efficiency was 100%. Besides, in experiment [2], the “Cooperativity (alpha factor)” value was 54.

In the case of `CC(NC(=O)c1cn(-c2ncc(F)cc2F)c2nc(N3CC(O)C(O)C3)c(F)cc2c1=O)C(F)(F)C(F)(F)F` (single isomer, unassigned) [Example 45], in experiment [1], the EC50 is 8.47 nM and the maximal response (Emax) worked out at 100%. Moreover, the “Cooperativity (alpha factor)” value in experiment [2] was 62.

For `CC[C@H](NC(=O)c1cn(-c2c(F)cc(F)cc2Cl)c2nc(N3C[C@@H](O)[C@H](O)C3)c(F)cc2c1=O)C(F)(F)F` (single isomer, unassigned) [Example 48], in experiment [1], the midpoint of the response, the EC50, lay at 1.8 nM and the Efficiency is on record as 78%. Moreover, in experiment [2], the “Cooperativity (alpha factor)” value is 42.

In experiment [1], `O=C(N[C@@H](C1CC1)C(F)(F)F)c1cn(-c2c(F)cc(F)cc2Cl)c2nc(N3CC(CO)(CO)C3)c(F)cc2c1=O` (single isomer, unassigned) [Example 71] registered an EC50 of 4.2 nM and an Efficiency of 94%. Moreover, in experiment [2], the “Cooperativity (alpha factor)” value was 26.

Consider `CC(NC(=O)c1cn(-c2c(F)cc(F)cc2F)c2nc(N3C[C@@H](O)[C@@H](O)C3)c(F)cc2c1=O)C(F)(F)C(F)(F)F` (single isomer, unassigned) [Example 94], for which, in experiment [1], the Emax amounted to 100%. Moreover, in experiment [2], the “Cooperativity (alpha factor)” value was 34.

In experiment [1], `CC(NC(=O)c1cn(-c2c(F)cc(F)cc2F)c2nc(N3CC[C@H](O)C3)c(F)cc2c1=O)C(F)(F)C(F)(F)F` (single isomer, unassigned) [Example 113] registered an EC50 of 2 nM and an Emax of 100%. Further, the “Cooperativity (alpha factor)” value in experiment [2] stood at 35.

On to `O=C(N[C@@H](C1CC1)C(F)(F)F)c1cn(-c2c(F)cc(F)cc2F)c2nc(N3CCCC3)c(F)cc2c1=O` [Example 231, N-[(1S)-1-cyclopropyl-2,2,2-trifluoroethyl]-6-fluoro-4-oxo-7-(pyrrolidin-1-yl)-1-(2,4,6-tri-fluorophenyl)-1,4-dihydro-1,8-naphthyridine-3-carboxamide], for which, in experiment [1], it took 4.8 nM to reach a half-maximal effect (EC50) and the Emax came out at 82%.

In experiment [1], `CC(NC(=O)c1cn(-c2c(F)cc(F)cc2F)c2nc(N3CCC4(C3)NC(=O)N(C)C4=O)c(F)cc2c1=O)C(F)(F)C(F)(F)F` (centres unmarked) [Example 234, 6-Fluoro-7-(3-methyl-2,4-dioxo-1,3,7-triazaspiro[4.4]non-7-yl)-4-oxo-N-[3,3,4,4,4-pentafluorobutan-2-yl]-1-(2,4,6-trifluorophenyl)-1,4-dihydro-1,8-naphthyridine-3-carboxamide] gave an EC50 of 9.7 nM and an Emax of 90%.

Regarding `CC(NC(=O)c1cn(-c2c(F)cc(F)cc2F)c2nc(N3CCC4(C3)NC(=O)NC4=O)c(F)cc2c1=O)C(F)(F)C(F)(F)F` (centres unmarked) [Example 235, 7-(2,4-Dioxo-1,3,7-triazaspiro[4.4]non-7-yl)-6-fluoro-4-oxo-N-[3,3,4,4,4-pentafluorobutan-2-yl]-1-(2,4,6-trifluorophenyl)-1,4-dihydro-1,8-naphthyridine-3-carboxamide], in experiment [1], the response was half-maximal at 4 nM (EC50) and the Emax is 92%.

The values are drawn from US11472803B2, “7-substituted 1-aryl-naphthyridine-3-carboxylic acid amides and use thereof” (Bayer Aktiengesellschaft, priority 2016, dated 2022).
